Data taken from patent US11547681B2, “N-acylethanolamide derivatives and uses thereof” (ELIEM THERAPEUTICS, INC., priority 2016, dated 2023).

How the values were obtained:
in vitro = conditions: male, Beagle, dog; for Concentration (μM) of analyte PEA, 0 min / Concentration (μM) of analyte PEA, 10 min / Concentration (μM) of analyte PEA, 20 min / Concentration (μM) of analyte PEA, 30 min / Concentration (μM) of analyte PEA, 60 min / % Remaining of Initial (n = 1), 0 min / % Remaining of Initial (n = 1), 10 min / % Remaining of Initial (n = 1), 20 min / % Remaining of Initial (n = 1), 30 min / % Remaining of Initial (n = 1), 60 min / Measured concentration of PEA (analyte) / % Remaining of Initial / Concentration, analyte PEA / % Remaining of Initial (n = 1): 1 μM
Experimental: (§1) Reaction mixture, minus cofactors, was prepared as described below. Test article was added into the reaction mixture at a final concentration of 1 μM. […] An aliquot of the reaction mixture (without cofactor cocktail) was equilibrated in a shaking water bath at 37° C. for 3 minutes. The reaction was initiated by the addition of cofactor cocktail, and the mixture was incubated in a shaking water bath at 37° C. Aliquots (100 μL) were withdrawn at 0, 10, 20, 30, and 60 minutes. Test article samples were immediately combined with 300 μL of ice-cold acetonitrile containing 1% formic acid. Control samples were immediately combined with 400 μL of ice-cold 50/50 acetonitrile (ACN)/dH2O containing 0.1% formic acid and internal standard to terminate the reaction. Samples were then mixed and centrifuged to precipitate proteins. Calibration standards were prepared in matched matrix. Samples and standards were assayed by LC-MS/MS using electrospray ionization for both the dosed prodrug and the expected drug (PEA). Analytical conditions are outlined in Appendix 8-1. Test article concentration at each time point was compared to test article concentration at time 0 to determine the percent remaining at each time point. Halflives were calculated using GraphPad software, fitting to a single-phase exponential decay equation.
as §1, with “for 5” for “for 3”, “minutes. Reaction” for “minutes. The reaction”, “and” for “and the”, “both” for “both the”, “Appendix 10-1.” for “Appendix 8-1.”
Reaction mixture, minus cofactors, was prepared as described below. Test article was added into the reaction mixture at a final concentration of 1 μM. […] An aliquot of the reaction mixture (without cofactor cocktail) was equilibrated in a shaking water bath at 37° C. for 3 minutes. Reaction was initiated by the addition of cofactor cocktail, and the mixture was incubated in a shaking water bath at 37° C. Aliquots (100 μL) were withdrawn at 0, 10, 20, 30, and 60 minutes. Test article samples were immediately combined with 300 μL of ice-cold acetonitrile containing 1% formic acid. Control samples were immediately combined with 400 μL of ice-cold 50/50 acetonitrile (ACN)/dH2O containing 0.1% formic acid and internal standard to terminate the reaction. Samples were then mixed and centrifuged to precipitate proteins. Calibration standards were prepared in matched matrix. Samples and standards were assayed by LC-MS/MS using electrospray ionization for both dosed prodrug and expected drug (PEA). Analytical conditions are outlined in Appendix 13-1. Test article concentration at each time point was compared to test article concentration at time 0 to determine the percent remaining at each time point. Halflives were calculated using GraphPad software, fitting to a single-phase exponential decay equation.

[1] = Plasma stability (37° C., pH 7.4), human; type: in vitro ADME; conditions: for half-life at 1 μM: both sexes, human, plasma, read-out: Half-life; for % Remaining of Initial (n = 1), 0 min / % Remaining of Initial (n = 1), 15 min / % Remaining of Initial (n = 1), 30 min / % Remaining of Initial (n = 1), 60 min / % Remaining of Initial (n = 1), 120 min / % Remaining of Initial: human plasma; for % Remaining of Initial (n = 1), 0 min: pH 7.4, 0 min; for % Remaining of Initial (n = 1), 15 min: pH 7.4, 15 min; for % Remaining of Initial (n = 1), 30 min: pH 7.4, 30 min; for % Remaining of Initial (n = 1), 60 min: pH 7.4, 60 min; for % Remaining of Initial (n = 1), 120 min: pH 7.4, 120 min; for % Remaining of Initial: n = 1; for % Remaining of Initial (n = 1): Human plasma
Experimental: (§2) Studies were carried out in mixed-gender human plasma (Lot #GLP530-5), male Sprague-Dawley rat (Lot #RAT297944, RAT313140), male CD-1 mouse (Lot #MSE237700), and male Beagle dog (Lot #BGL87670, BGL82614), collected on sodium heparin. Plasma was adjusted to pH 7.4 prior to initiating the experiments. DMSO stocks were first prepared for the test articles. Aliquots of the DMSO solutions were dosed into 700 μL of plasma, which had been pre-warmed to 37° C., at a final test article concentration of 1 μM. […] Samples were stored at 4° C. until the end of the experiment. After the final time point was sampled, the plate was mixed and then centrifuged at 3,000 rpm for 10 minutes. Calibration standards were prepared in matched matrix. […] Analytical conditions are outlined in Appendix 8-1.
as §2, with “#AS1650-2),” for “#GLP530-5),”, “#RAT297944),” for “#RAT297944, RAT313140),”, “CD-I” for “CD-1”, “#BGL91384),” for “#BGL87670, BGL82614),”, “10-1.” for “8-1.”
Studies were carried out in mixed-gender human plasma (Lot #AS1650-2), male Sprague-Dawley rat (Lot #RAT297944), male CD-1 mouse (Lot #MSE237700), and male Beagle dog (Lot #BGL91384), collected on sodium heparin. Plasma was adjusted to pH 7.4 prior to initiating the experiments. DMSO stocks were first prepared for test articles. […] Samples were stored at 4° C. until the end of experiment. After the final time point was sampled, the plate was mixed and then centrifuged at 3,000 rpm for 10 minutes. Calibration standards were prepared in matched matrix. […] Analytical conditions are outlined in Appendix 13-1.
Studies were carried out in mixed-gender human plasma (Lot #AS 1650-2), male Sprague-Dawley rat (Lot #RAT320835), male CD-1 mouse (Lot #MSE260693), and 6 male Beagle dog (Lot #BGL91384), on sodium heparin. Plasma was adjusted to pH 7.4 prior to initiating the experiments. DMSO stocks were first prepared for the test articles. Aliquots of the DMSO solutions were dosed into 700 μL of plasma, which had been pre-warmed to 37° C., at a final test article concentration of 1 μM. […] Samples were stored at 4° C. until the end of the experiment. After the final time point was sampled, the plate was mixed and then centrifuged at 3,000 rpm for 10 minutes. Calibration standards were prepared in matched matrix. […] Analytical conditions are outlined in Appendix 17-1.

[2] = pH 7.4, human plasma, test article 1 μM, 37° C., pH 7.4

Compound | Concentration (μM) of analyte PEA, 0 min (in vitro; 0 min) | Concentration (μM) of analyte PEA, 10 min (in vitro; 10 min) | Concentration (μM) of analyte PEA, 20 min (in vitro; 20 min) | Concentration (μM) of analyte PEA, 30 min (in vitro; 30 min) | Concentration (μM) of analyte PEA, 60 min (in vitro; 60 min) | % Remaining of Initial (n = 1), 0 min (in vitro; s9, 0 h) | % Remaining of Initial (n = 1), 10 min (in vitro; s9, 10 min) | % Remaining of Initial (n = 1), 20 min (in vitro; s9, 20 min) | % Remaining of Initial (n = 1), 30 min (in vitro; s9, 0.5 h) | % Remaining of Initial (n = 1), 60 min (in vitro; s9, 1 h) | microsomal CLint at 1 μM (in vitro; s9, CLint (mL/min/mg protein)) | half-life at 1 μM (in vitro; s9, Half-life (min)) | half-life at 1 μM [1, 2] | % Remaining of Initial (n = 1), 0 min ([1]; test article 1 μM, 37° C.) | % Remaining of Initial (n = 1), 15 min ([1]; test article 1 μM, 37° C.) | % Remaining of Initial (n = 1), 30 min ([1]; test article 1 μM, 37° C.) | % Remaining of Initial (n = 1), 60 min ([1]; test article 1 μM, 37° C.) | % Remaining of Initial (n = 1), 120 min ([1]; test article 1 μM, 37° C.) | other results
CCCCCCCCCCCCCCCC(=O)NCCOC(=O)CCC(=O)OC[C@H]1O[C@@](CO)(O[C@H]2O[C@H](CO)[C@@H](O)[C@H](O)[C@H]2O)[C@@H](O)[C@@H]1O [Compound I-7] | 0.38 µM | 0.36 µM | 0.55 µM | 0.51 µM | 0.50 µM | 100% | 1.1% | <1.0% | <1.0% | <1.0% | 452 µL/min/mg | 1.5 min | < 1 min | 100% | <1.0% | <1.0% | <1.0% | <1.0% | 
CCCCCCCCCCCCCCCC(=O)NCCOC(=O)CCC(=O)OC(CO)CO [Compound I-8] |  |  |  |  |  |  |  |  |  |  |  |  |  |  |  |  |  |  | Measured concentration of PEA (analyte) (in vitro; 0 min): 0.33 µM; Measured concentration of PEA (analyte) (in vitro; 10 min): 0.71 µM; Measured concentration of PEA (analyte) (in vitro; 20 min): 0.81 µM; Measured concentration of PEA (analyte) (in vitro; 30 min): 0.67 µM; Measured concentration of PEA (analyte) (in vitro; 60 min): 0.81 µM; % Remaining of Initial (in vitro; s9, 0 h): 100%; % Remaining of Initial (in vitro; s9, 10 min): <1.0%; % Remaining of Initial (in vitro; s9, 20 min): <1.0%; % Remaining of Initial (in vitro; s9, 0.5 h): <1.0%; % Remaining of Initial (in vitro; s9, 1 h): <1.0%; microsomal CLint at 1 μM (in vitro; s9, CLint): > 69.3 µL/min/mg; half-life at 1 μM (in vitro; s9, Half-life): < 10 min; half-life at 1 μM ([1]; pH 7.4, human plasma): < 1 min; % Remaining of Initial ([1]; 0 min, 1 μM): 100%; % Remaining of Initial ([1]; 15 min, 1 μM): <1.0%; % Remaining of Initial ([1]; 30 min, 1 μM): <1.0%; % Remaining of Initial ([1]; 60 min, 1 μM): <1.0%; % Remaining of Initial ([1]; 120 min, 1 μM): <1.0%
CCCCCCCCCCCCCCCC(=O)NCCOC(=O)CCC(=O)OCC(O)CO (centres unmarked) [Compound I-9] | 0.26 µM | 0.48 µM | 0.47 µM | 0.46 µM | 0.45 µM | 100% | <1.0% | <1.0% | <1.0% | <1.0% | > 691 µL/min/mg | < 1 min | 3.8 min | 100% | 6.4% | 1.4% | <1.0% | <1.0% | 
CCCCCCCCCCCCCCCC(=O)NCCOC(=O)CCC(=O)OCC(COC(=O)CCC)OC(=O)CCC (centres unmarked) [Compound I-11] | 0.032 µM | 0.23 µM | 0.38 µM | 0.74 µM | 0.88 µM | 100% | 1.8% | <1.0% | <1.0% | <1.0% |  |  | 34 min | 100% | 67% | 47% | 34% | 10% | 
CCCCC/C=C\C/C=C\CCCCCCCC(=O)OCC(COC(=O)CCC(=O)OCCNC(=O)CCCCCCCCCCCCCCC)OC(=O)CCCCCCC/C=C\C/C=C\CCCCC (centres unmarked) [Compound I-13] |  |  |  |  |  |  |  |  |  |  |  |  |  |  |  |  |  |  | Concentration, analyte PEA (in vitro; 0 min): 58 nM; Concentration, analyte PEA (in vitro; 10 min): 95 nM; Concentration, analyte PEA (in vitro; 20 min): 100 nM; Concentration, analyte PEA (in vitro; 30 min): 89 nM; Concentration, analyte PEA (in vitro; 60 min): 170 nM; % Remaining of Initial (n = 1) (in vitro; s9, 0 h): 100%; % Remaining of Initial (n = 1) (in vitro; s9, 10 min): 67%; % Remaining of Initial (n = 1) (in vitro; s9, 20 min): 63%; % Remaining of Initial (n = 1) (in vitro; s9, 0.5 h): 46%; % Remaining of Initial (n = 1) (in vitro; s9, 1 h): 49%; % Remaining of Initial (n = 1) ([1]; 0 min, 1 μM): 100%; % Remaining of Initial (n = 1) ([1]; 15 min, 1 μM): 104%; % Remaining of Initial (n = 1) ([1]; 30 min, 1 μM): 115%; % Remaining of Initial (n = 1) ([1]; 60 min, 1 μM): 95%; % Remaining of Initial (n = 1) ([1]; 120 min, 1 μM): 40%; half-life at 1 μM ([1]; pH 7.4, Human plasma, 1 μM): 120 min
